# Assay results: patent publication US5025036A, “Catechol carboxylic acids” (Hoffmann-La Roche Inc., priority 1989, dated 1991)
# How the values were obtained:
# Carrageenan pleurisy = assay: Carrageenan Pleurisy Test (In Vivo); set-up: species or system male Lewis rats; details: Rattus norvegicus, po, read-out: Rat Carrageenan Pleurisy % Inhib. of Exudate Volume; for inhibition in vivo at 100 mg/kg: at 100 mg/kg p.o
# Method: The animals utilized in these studies were male Lewis rats (Charles River Breeding Laboratories) weighing between 230-250 g. […] At 5 or 24 hours after CG injection, the rats were killed by decapitation, exsanguinated, and the pleural cavity exposed by cutting the ribs on both sides of the sternum. The exudate fluid was removed from the pleural cavity with disposable plastic pipettes and its volume quantitated. The pleural cavity was then washed once with phosphate buffered saline containing fetal bovine serum (1:1) and the washings combined with the exudate. The total number of cells in the pleural cavity was quantitated using a Coulter Counter (Model ZM) adjusted to exclude any contaminating RBC. (Published in "Plant Flavonoids in Biology & Medicine: Biochemical, Pharmacological and Structure-Activity Relationships" p. 231-242 (1986) Alan R. Liss, Inc.)
# [1] = Rat In Vivo Model of Myocardial Ischemia (free radical generator infusion); set-up: species or system male spontaneously hypertensive rats; details: for Rat Ischemia Model % Infarction: percent of left ventricle infarcted of the animals with an infarct
# Method: In this preparation a free radical generating (FRG) system consisting of purine (2.3 mM), xanthine oxidase (0.02 U/ml) and iron loaded transferring (0.6 μM) complex is infused into the carotid artery near the ostium of the coronary artery in spontaneously hypertensive rats. Blood is withdrawn before and 24 hours after the FRG challenge for measuring the isoenzymes of lactic acid dehydrogenase (LDH1 :LDH2). An increase in LDH1 :LDH2 ratio reflects cell damage to the myocardium. The electrocardiogram is also taken before and 24 hours after the FRG infusion. At the end of the experiment the heart is removed, sliced in a breadloaf fashion, and stained with triphenyltetrazolium chloride to determine infarct size. A drug or vehicle is administered intravenously 10-30 minutes before the FRG challenge. A drug is considered active if there is no elevation of the LDH1 :LDH2 ratio, no ECG abnormalities and no histologic evidence of an infarction.
# Male spontaneously hypertensive rats (280-320 g) from Taconic Farms, were lightly anesthetized with sodium pentobarbital (30-50 mg/kg, i.p.). […] A catheter of PE 50 tubing was inserted into the right common carotid artery to a position proximal to the ostia of the coronary arteries and used to sample blood and infuse the free radical generator (FRG) system. A second catheter of PE 10 tubing was inserted into the left jugular vein to administer drugs. The infusion system for the FRG consisted of a double syringe infusion pump, Sage Model 351, with one syringe containing xanthine oxidase (0.01 units/ml) in a HEPES (0.05M) buffer and the other syringe containing purine (2.3 mM) plus Fe^3+ loaded transferring (0.06 μM) in a HEPES (0.05M) buffer. The FRG infused separately mixes simultaneously near the ostia of the coronary arteries. This infusion was delivered at a rate of 0.03 ml/minute for a total infusion time of 10 minutes. The drugs were infused over a one minute period in a 0.9% saline vehicle.
# Standard Lead II ECG was monitored continuously on a Hewlett-Packard 7758A recorder prior to treatment, throughout the FRG infusion and 10 minutes post infusion. Catheters were removed and animals were allowed to recover and fed standard rat chow and water ad libitum. 24 hours following the FRG infusion, animals were reanesthetized with sodium pentobarbital (30-50 mg/kg, i.p.) and an ECG was obtained. Blood samples were taken prior to and after the FRG infusion and at the conclusion of the experiment. These samples were centrifuged and assayed for total lactate dehydrogenase (LDH) and lactate dehydrogenase isoenzymes (LDH1 :LDH2), using electrophoresis.
# The animals were sacrificed, the hearts rapidly excised, and washed free of blood and sectioned. The left ventricle was weighed and stored in a Revco® freezer at -70° C. The left ventricle was sliced into 2 mm-thick rings, incubated in a 1% triphenyltetrazolium chloride solution for 20 minutes, and then fixed in a 10% formalin solution. Infarcted areas were measured and quantitated as a percentage of the total left ventricular volume.
# [2] = tested on: myeloperoxidase accumulation (acetic acid-induced colitis); assay: Acetic Acid-Induced Colitis in Rats, In Vivo; set-up: species or system male rats (Sprague-Dawley)
# Text: The rat acetic acid-induced colitis bioassay has been described by J. E. Krawisz, et al. in Amer. J. Proc. Gastro. Col. Rec. Surg. 31: 11-18 (1980), and by P. Sharon and W. F. Stenson in Gastroenterolgy 88: 55-63 (1985) and 86: 453-460 (1984). Acetic acid-induced colitis is characterized by the movement of inflammatory cells into the colon, with the number of such cells in the mucosa being measured by the activity of myeloperoxidase, a marker enzyme for these cells. Positive desirable activity is indicated by a reduction in the high levels of myeloperoxidase caused by acetic acid. Male rats (Sprague-Dawley), weighing 150 to 300 g, were pretreated twice daily for two days with either the vehicle (water, or dimethylsulfoxide) or the test inhibitor compound suspended in water or dissolved in dimethylsulfoxide and orally administered. On the third day, the animals were dosed the same as on the previous two days, anesthetized with metofane, and 2 ml of 2.5% acetic acid was injected by syringe into the colonic lumen, followed immediately by 3 ml of air and a rinse consisting of 3 ml of phosphate-buffered saline (the acetic acid is present in the lumen for a sufficient period to cause inflammation without producing severe necrosis or irreversible damage). The animals were administered a second dose of the test compound in the same amount about 16 hours later. 24 hours after the acetic acid treatment, the animals were sacrificed, the colonic mucosa was surgically removed and homogenized in an aqueous buffer at pH 6 with a Tissumizer or similar device and myeloperoxidase was measured in the homogenate using o-phenylenediamine as a chromagen, as described by A. Voller, D. E. Bidwell and A. Bartlett in The Enzyme Linked Immunosorbent Assay (ELISA), Zoological Soc., London, 1979, pages 29-30. Control animals were pretreated with the vehicle and saline in place of acetic acid.
# ear edema = assay: Mouse Ear Edema Test (In Vivo), arachidonic acid; set-up: species or system CD-1 male mice; details: topical, 1 h, at 1 mg topically
# Text: Invest. Dermatol. 80:48 (1983) and Hames, Opas and Bonney, "Arachidonic Acid Metabolites in Mouse Ear Edema" Advances in Inflammation Research, 11:57 (1986). […] CD-1 male mice weighing 15 to 25 g were employed, and they were designated as follows: (1) Control Group, in which no arachidonic acid or test compound was to be applied, (2) Arachidonic Acid-Treated Group, in which no test compound was to be applied, and (3) Treated Group, in which the test compound was to be applied first, followed by the application of arachidonic acid. In the case of the Group (3) animals, the test compound, dissolved in acetone, was applied to the dorsal surface of the right ear of the mouse with a 25-microliter pipettor, with the dose of the test compound being varied. After 0.5 hours in some cases and 4 hours in others, the arachidonic acid was topically applied in the same manner as above to the pretreated ear areas. In each case of arachidonic acid application, an amount of 0.5 mg dissolved in 25 microliters of acetone was used. After 1 hour, the mice were sacrificed by carbon dioxide inhalation. A 6 mm-diameter standard biopsy punch was used to obtain a uniform tissue sample from the ear of each mouse so treated, and the tissue samples were weighed to the nearest 0.1 mg. The percent inhibition of ear edema formation was calculated as follows: [formula]
compound,measurement,setting,value
"CCCc1c(OCCCCc2cccc(O)c2O)ccc(C(C)=O)c1O [1-[2-Hydroxy-4-[4-(2,3-dihydroxyphenyl)butoxy]-3-propylphenyl]ethanone]",inhibition in vivo at 100 mg/kg,Carrageenan pleurisy,53%
same,Rat Ischemia Model Infarcts/Total,[1]; 10 mg/kg iv,1/5
same,Rat Ischemia Model % Infarction,[1]; 10 mg/kg iv,12%
same,Rat Acetic Acid Colitis Model % Inhib. of Myeloperoxidase Accumulation,[2]; 10 mg/kg p.o,46 ± 7%
same,Rat Acetic Acid Colitis Model % Inhib. of Myeloperoxidase Accumulation,[2]; 30 mg/kg p.o,89 ± 11%
"CCCc1c(OCCCCCCc2ccc(C(C)C)c(O)c2O)ccc(C(C)=O)c1O [1-[2-hydroxy-4 [6-[2,3 dihydroxy-4-(1-methylethyl)phenyl]hexyloxy]-3 propylphenyl]ethanone]",Rat Ischemia Model Infarcts/Total,[1]; 10 mg/kg iv,2/5
same,Rat Ischemia Model % Infarction,[1]; 10 mg/kg iv,11%
same,Rat Acetic Acid Colitis Model % Inhib. of Myeloperoxidase Accumulation,[2]; 10 mg/kg p.o,65 ± 10%
"CCCc1c(OCCCCCCc2cccc(O)c2O)ccc(C(C)=O)c1O [1-[2-hydroxy-4-[6-(2,3-dihydroxyphenyl)hexyloxy]-3-propylphenyl]ethanone]",inhibition in vivo at 100 mg/kg,Carrageenan pleurisy,51%
same,inhibition in vivo at 1 mg,ear edema,21%
same,Rat Ischemia Model Infarcts/Total,[1]; 10 mg/kg iv,4/4
same,Rat Ischemia Model % Infarction,[1]; 10 mg/kg iv,24%
"CCCc1c(OCCCc2ccc(O)c(O)c2)ccc(C(=O)O)c1O [4-[3-(3,4-Dihydroxyphenyl)propoxy]-2-hydroxy-3-propylbenzoic acid]",inhibition in vivo at 100 mg/kg,Carrageenan pleurisy,55%
same,inhibition in vivo at 1 mg,ear edema,32%
same,Rat Acetic Acid Colitis Model % Inhib. of Myeloperoxidase Accumulation,[2]; 30 mg/kg p.o,39 ± 5%
"CCCc1c(OCCCCc2cccc(O)c2O)ccc(C(=O)O)c1O [4-[4-(2,3-dihydroxyphenyl)butoxy]-2-hydroxy-3-propylbenzoic acid]",inhibition in vivo at 100 mg/kg,Carrageenan pleurisy,76%
same,inhibition in vivo at 1 mg,ear edema,17%
same,Rat Ischemia Model Infarcts/Total,[1]; 10 mg/kg iv,2/5
same,Rat Ischemia Model % Infarction,[1]; 10 mg/kg iv,8%
same,Rat Acetic Acid Colitis Model % Inhib. of Myeloperoxidase Accumulation,[2]; 10 mg/kg p.o,73 ± 10%
same,Rat Acetic Acid Colitis Model % Inhib. of Myeloperoxidase Accumulation,[2]; 30 mg/kg p.o,71 ± 11%
"CCCc1c(OCCCCCc2cccc(O)c2O)ccc(C(=O)O)c1O [4-[5-(2,3-Dihydroxyphenyl)pentyloxy]-2-hydroxy-3-propylbenzoic acid]",inhibition in vivo at 100 mg/kg,Carrageenan pleurisy,63%
same,inhibition in vivo at 1 mg,ear edema,0%
same,Rat Ischemia Model Infarcts/Total,[1]; 10 mg/kg iv,4/5
same,Rat Ischemia Model % Infarction,[1]; 10 mg/kg iv,15%
same,Rat Acetic Acid Colitis Model % Inhib. of Myeloperoxidase Accumulation,[2]; 1 mg/kg p.o,96 ± 13%
"CCCc1c(OCCCCCCc2cccc(O)c2O)ccc(C(=O)OCC)c1O [4-[6-(2,3-Dihydroxyphenyl)hexyloxy]-2-hydroxy-3-propylbenzoic acid ethyl ester]",inhibition in vivo at 100 mg/kg,Carrageenan pleurisy,44%
same,inhibition in vivo at 1 mg,ear edema,64%
same,Rat Acetic Acid Colitis Model % Inhib. of Myeloperoxidase Accumulation,[2]; 1 mg/kg p.o,40 ± 9%
same,Rat Acetic Acid Colitis Model % Inhib. of Myeloperoxidase Accumulation,[2]; 3 mg/kg p.o,67 ± 11%
"CCCc1c(OCCCCCCc2cccc(O)c2O)ccc(C(=O)O)c1O [4-[6-(2,3-Dihydroxyphenyl)hexyloxy]-2-hydroxy-3-propylbenzoic acid]",inhibition in vivo at 100 mg/kg,Carrageenan pleurisy,68%
same,inhibition in vivo at 1 mg,ear edema,46%
same,Rat Ischemia Model Infarcts/Total,[1]; 10 mg/kg iv,4/5
same,Rat Ischemia Model % Infarction,[1]; 10 mg/kg iv,8%
same,Rat Acetic Acid Colitis Model % Inhib. of Myeloperoxidase Accumulation,[2]; 10 mg/kg p.o,42 ± 2%
same,Rat Acetic Acid Colitis Model % Inhib. of Myeloperoxidase Accumulation,[2]; 30 mg/kg p.o,67 ± 15%
"O=C(O)c1ccc(OCCCCCCc2cccc(O)c2O)cc1O [4-[6-(2,3-Dihydroxyphenyl)hexyloxy]-2-hydroxybenzoic acid]",inhibition in vivo at 100 mg/kg,Carrageenan pleurisy,0%
same,inhibition in vivo at 1 mg,ear edema,50%
same,Rat Ischemia Model Infarcts/Total,[1]; 10 mg/kg iv,3/5
same,Rat Ischemia Model % Infarction,[1]; 10 mg/kg iv,10%
same,Rat Acetic Acid Colitis Model % Inhib. of Myeloperoxidase Accumulation,[2]; 1 mg/kg p.o,82 ± 9%
same,Rat Acetic Acid Colitis Model % Inhib. of Myeloperoxidase Accumulation,[2]; 3 mg/kg p.o,81 ± 15%
"O=C(O)c1ccc(OCCCCCCc2cccc(O)c2O)cc1 [4-[6-(2,3-Dihydroxyphenyl)hexyloxy]benzoic acid]",inhibition in vivo at 100 mg/kg,Carrageenan pleurisy,46%
same,inhibition in vivo at 1 mg,ear edema,48%
same,Rat Ischemia Model Infarcts/Total,[1]; 10 mg/kg iv,2/5
same,Rat Ischemia Model % Infarction,[1]; 10 mg/kg iv,19%
same,Rat Acetic Acid Colitis Model % Inhib. of Myeloperoxidase Accumulation,[2]; 3 mg/kg p.o,79 ± 8%
same,Rat Acetic Acid Colitis Model % Inhib. of Myeloperoxidase Accumulation,[2]; 10 mg/kg p.o,89 ± 28%
"CCCc1c(OCCCCCCc2ccc(O)c(O)c2)ccc(C(=O)O)c1O [4-[6-(3,4-dihydroxyphenyl)hexyloxy]-2-hydroxy-3-propylbenzoic acid]",inhibition in vivo at 100 mg/kg,Carrageenan pleurisy,0%
same,inhibition in vivo at 1 mg,ear edema,21%
same,Rat Ischemia Model Infarcts/Total,[1]; 5 mg/kg iv,1/5
same,Rat Ischemia Model % Infarction,[1]; 5 mg/kg iv,11%
"CCCc1c(OCCCCCCCc2cccc(O)c2O)ccc(C(=O)O)c1O [4-[7-(2,3-dihydroxyphenyl)heptyloxy]-2-hydroxy-3-propylbenzoic acid]",inhibition in vivo at 100 mg/kg,Carrageenan pleurisy,57%
same,inhibition in vivo at 1 mg,ear edema,57%
same,Rat Ischemia Model Infarcts/Total,[1]; 10 mg/kg iv,3/5
same,Rat Ischemia Model % Infarction,[1]; 10 mg/kg iv,18%
"CCCc1c(OCCCCCCCCCCc2cccc(O)c2O)ccc(C(=O)O)c1O [4-[10-(2,3-dihydroxyphenyl)decyloxy]-2-hydroxy-3-propylbenzoic acid]",inhibition in vivo at 100 mg/kg,Carrageenan pleurisy,61%
same,inhibition in vivo at 1 mg,ear edema,49%
same,Rat Ischemia Model Infarcts/Total,[1]; 10 mg/kg iv,3/3
same,Rat Ischemia Model % Infarction,[1]; 10 mg/kg iv,13%
"CCCc1c(O)c(C(=O)O)cc(Cl)c1OCCCCCCc1cccc(O)c1O [5-Chloro-2-hydroxy-4-[6-(2,3-dihydroxyphenyl]hexyloxy]-3-propylbenzoic acid]",inhibition in vivo at 50 mg/kg,Carrageenan pleurisy; at 50 mg/kg p.o,45%
same,inhibition in vivo at 1 mg,ear edema,51%
same,Rat Acetic Acid Colitis Model % Inhib. of Myeloperoxidase Accumulation,[2]; 30 mg/kg p.o,44 ± 6%
